Measurements as given in US4268510A, “1,3-Benzoxazine trichloromethyl derivatives, compositions and use” (Imperial Chemical Industries Limited, priority 1978, dated 1981).
In brackets after ≈: the same amount, converted by molar mass.

The compounds below were run on methane production from ruminal fluid (assay: in vitro assay of inhibition of methane production from ruminal fluid). Conditions: at 1 μg./ml.; in vitro rumen fluid, 39° C., 15-16 hours.
Assay type: cell-based, steers (pooled rumen fluid)
Protocol: Rumen fluid is collected on a regular routine basis from two steers, which are fed on the same hay-plus-concentrate diet. Sampling time is standardised as far as possible, and the fluid from the two animals is pooled on a 50/50 basis. Large particulate matter is removed by filtering the pooled fluid through four layers of muslin cloth. The filtrate is then diluted in the ratio of one volume of filtrate to three volumes of an artificial rumen fluid (prepared as described by G. L. Bales et al., Journal of Dairy Science, 1976, volume 59, page 1850, but omitting acetic acid), and the pH of the mixture is adjusted to 6.9-7.0 with saturated aqueous sodium carbonate solution. Aliquots (50 ml.) of this mixture are dispensed into 100 ml. conical flasks containing dried ground hay (0.5 g.), and each flask is used to test a test compound at a particular concentration.
The test compound is added to the conical flask as a solution in ethanol, the flask is flushed with carbon dioxide gas, stoppered with a suba-seal, and incubated at 39° C. for 15-16 hours. After one hour, a narrow bore needle is inserted through the suba-seal to relieve the gas pressure, and the needle is withdrawn 30 minutes before the incubation is ended. Fermentation is then stopped by placing the flask in ice, and after 15 minutes cooling, the gas over the liquid is analysed for methane by gas chromatography, and the concentration of the test compound required to produce a 50% reduction in methane production (ED50 in μg./ml.) is calculated.
The test of methane inhibition described in Example 12 was repeated for various other compounds, to give the results shown below. The results are expressed as the percentage inhibition of methane production caused by 1 μg./ml. of a test compound, except for those compounds indicated by *, for which 3 μg./ml. was used.

SMILES	inhibition at 1 µg/mL
Cc1ccc(S(=O)(=O)Nc2ccc3c(c2)C(=O)NC(C(Cl)(Cl)Cl)O3)cc1 (centres unmarked) [3,4-dihydro-6-tosylamino-2-trichloromethyl-2H-benzo[e]-[1,3]-oxazin-4-one]	94%
O=C(O)c1cc(C(=O)O)c2c(c1)C(=O)NC(C(Cl)(Cl)Cl)O2 (centres unmarked) [drawing 8; R1=COOH; R3=COOH; R5=H, 3,4-dihydro-4-oxo-2-trichloromethyl-2H-benzo[e]-[1,3]-oxazine-6,8-dicarboxylic acid]	38%
CC(=O)Nc1ccc2c(c1)C(=O)NC(C(Cl)(Cl)Cl)O2 (centres unmarked) [drawing 8; R1=H; R3=CH3 CONH; R5=H, 6-acetamido-3,4-dihydro-2-trichloromethyl-2H-benzo[e]-[1,3]-oxazin-4-one]	96%
O=Cc1ccc2c(c1)C(=O)NC(C(Cl)(Cl)Cl)O2 (centres unmarked) [drawing 8; R1=H; R3=CHO; R5=H]	47%
CN1C(=O)c2ccccc2OC1C(Cl)(Cl)Cl (centres unmarked) [drawing 8; R1=H; R3=H; R5=CH3, 3,4-dihydro-3-methyl-2-trichloromethylbenzo[e]-[1,3]-oxazin-4-one]	100%

Same assay, conditions: at 3 μg./ml.; in vitro rumen fluid, 39° C., 15-16 hours; read-out: % Methane Inhibition (compounds indicated by *)

SMILES	inhibition at 3 µg/mL
O=C1NC(C(Cl)(Cl)Cl)Oc2ccc(NCc3ccc(Cl)cc3)cc21 (centres unmarked) [6-p-chlorobenzylamino-3,4-dihydro-2-tichloromethyl-2H-benzo[e]-[1,3]-oxazin-4l-one]	86%
N#Cc1ccc2c(c1)C(=O)NC(C(Cl)(Cl)Cl)O2 (centres unmarked) [drawing 8; R1=H; R3=CN; R5=H, 3,4-dihydro-4-oxo-2-trichloromethyl-2H-benzo[e]-[1,3]-oxazine-6-carbonitrile]	87%

Same assay, conditions: in vitro, diluted rumen fluid with dried ground hay, pH 6.9-7.0, 39° C., 15-16 hours; read-out: ED50, concentration of the test compound required to produce a 50% reduction in methane production

SMILES	IC50
O=C1NC(C(Cl)(Cl)Cl)Nc2ccc(Cl)cc21 (centres unmarked) [drawing 5; R3=Cl; R5=H; R6=H]	0.3 µg/mL (≈ 1 µM)
CN1C(=O)c2ccccc2N(C)C1C(Cl)(Cl)Cl (centres unmarked) [drawing 5; R3=H; R5=CH3; R6=CH3]	1 µg/mL (≈ 3.41 µM)
CN1C(=O)c2ccccc2NC1C(Cl)(Cl)Cl (centres unmarked) [drawing 5; R3=H; R5=CH3; R6=H]	1 µg/mL (≈ 3.58 µM)
CN1c2ccccc2C(=O)NC1C(Cl)(Cl)Cl (centres unmarked) [drawing 5; R3=H; R5=H; R6=CH3]	0.3 µg/mL (≈ 1.07 µM)
O=C1NC(C(Cl)(Cl)Cl)Nc2ccccc21 (centres unmarked) [drawing 5; R3=H; R5=H; R6=H, 1,2-dihydro-2-trichloromethylquinazolin-4-one]	0.3 µg/mL (≈ 1.13 µM)
O=C1NC(C(Cl)(Cl)Cl)Nc2ccc([N+](=O)[O-])cc21 (centres unmarked) [drawing 5; R3=NO2; R5=H; R6=H, 1,2-dihydro-6-nitro-2-trichloromethylquinazolin-4-one]	3 µg/mL (≈ 9.66 µM)
CCN(CC)C(=O)c1ccc2c(c1)C(=O)NC(C(Cl)(Cl)Cl)O2 (centres unmarked) [drawing 6; R3=(C2 H5)2 N . CO; R5=H, 3,4-dihydro-N,N-diethyl-4-oxo-2-trichloromethyl-2H-benzo[e]-[1,3]-oxazine-6-carboxamide]	0.3 µg/mL (≈ 0.82 µM)
O=C1NC(C(Cl)(Cl)Cl)Oc2ccc(Br)cc21 (centres unmarked) [drawing 6; R3=Br; R5=H]	0.5 µg/mL (≈ 1.45 µM)
CCC(=O)Oc1ccc2c(c1)C(=O)N(C(=O)CC)C(C(Cl)(Cl)Cl)O2 (centres unmarked) [drawing 6; R3=C2 H5 CO . O; R5=C2 H5 CO, 3,4-dihydro-3-propionyl-6-propionyloxy-2-trichloromethyl-2H-benzo[e]-[1,3]-oxazin-4-one]	0.3 µg/mL (≈ 0.76 µM)
CCC(=O)Oc1ccc2c(c1)C(=O)NC(C(Cl)(Cl)Cl)O2 (centres unmarked) [drawing 6; R3=C2 H5 CO . O; R5=H, 3,4-dihydro-6-propionyloxy-2-trichloromethyl-2H-benzo[e]-[1,3]-oxazin-4-one]	0.3 µg/mL (≈ 0.886 µM)
O=C1NC(C(Cl)(Cl)Cl)Oc2ccc(OCc3ccccc3)cc21 (centres unmarked) [drawing 6; R3=C6 H5 . CH2 O; R5=H, 6-benzyloxy-3,4-dihydro-2-trichloromethyl-2H-benzo[e]-[1,3]-oxazin-4-one]	10 µg/mL (≈ 26.8 µM)
CC(=O)Oc1ccc2c(c1)C(=O)N(C(C)=O)C(C(Cl)(Cl)Cl)O2 (centres unmarked) [drawing 6; R3=CH3 CO . O; R5=CH3 CO, 6-acetoxy-3-acetyl-3,4-dihydro-2-trichloromethyl-2H-benzo[e]-[1,3]-oxazin-4-one]	1 µg/mL (≈ 2.73 µM)
CC(=O)Oc1ccc2c(c1)C(=O)NC(C(Cl)(Cl)Cl)O2 (centres unmarked) [drawing 6; R3=CH3 CO . O; R5=H, 6-acetoxy-3,4-dihydro-2-trichloromethyl-2H-benzo[e]-[1,3]-oxazin-4-one]	0.3 µg/mL (≈ 0.924 µM)

Other lines, results leading:

IC50	SMILES
0.3 µg/mL (≈ 0.853 µM)	CCCNC(=O)c1ccc2c(c1)C(=O)NC(C(Cl)(Cl)Cl)O2 (centres unmarked) [drawing 6; R3=CH3 (CH2)2 NH . CO; R5=H, 3,4-dihydro-4-oxo-N-propyl-2-trichloromethyl-2H-benzo[e]-[1,3]-oxazine-6-carboxamide]
1 µg/mL (≈ 2.73 µM)	CCCCOC(=O)c1ccc2c(c1)C(=O)NC(C(Cl)(Cl)Cl)O2 (centres unmarked) [drawing 6; R3=CH3 (CH2)3 O . CO; R5=H, butyl 3,4-dihydro-4-oxo-2-trichloromethyl-2H-benzo[e]-[1,3]-oxazine-6-carboxylate]
3 µg/mL (≈ 8.86 µM)	CCCCOc1ccc2c(c1)C(=O)NC(C(Cl)(Cl)Cl)O2 (centres unmarked) [drawing 6; R3=CH3 (CH2)3 O; R5=H, 6-butyloxy-3,4-dihydro-2-trichloromethyl-2H-benzo[e]-[1,3]-oxazin-4-one]
3 µg/mL (≈ 9.24 µM)	COC(=O)c1ccc2c(c1)C(=O)NC(C(Cl)(Cl)Cl)O2 (centres unmarked) [drawing 6; R3=CH3 O . CO; R5=H, methyl 3,4-dihydro-4-oxo-2-trichloromethyl-2H-benzo[e]-[1,3]-oxazine-6-carboxylate]
3 µg/mL (≈ 9.66 µM)	COc1ccc2c(c1)C(=O)N(C)C(C(Cl)(Cl)Cl)O2 (centres unmarked) [drawing 6; R3=CH3 O; R5=CH3, 3,4-dihydro-6-methoxy-3-methyl-2-trichloromethyl-2H-benzo[e]-[1,3]-oxazin-4-one]
0.5 µg/mL (≈ 1.69 µM)	COc1ccc2c(c1)C(=O)NC(C(Cl)(Cl)Cl)O2 (centres unmarked) [drawing 6; R3=CH3 O; R5=H, 3,4-dihydro-6-methoxy-2-trichloromethyl-2H-benzo[e]-[1,3]-oxazin-4-one]
1 µg/mL (≈ 3.56 µM)	Cc1ccc2c(c1)C(=O)NC(C(Cl)(Cl)Cl)O2 (centres unmarked) [drawing 6; R3=CH3; R5=H]
1 µg/mL (≈ 3.24 µM)	CC(=O)N1C(=O)c2ccccc2OC1C(Cl)(Cl)Cl (centres unmarked) [drawing 6; R3=H; R5=CH3 CO, 3-acetyl-3,4-dihydro-2-trichloromethyl-2H-benzo[e]-[1,3]-oxazin-4-one]
0.5 µg/mL (≈ 1.88 µM)	O=C1NC(C(Cl)(Cl)Cl)Oc2ccccc21 (centres unmarked) [drawing 6; R3=H; R5=H, 3,4-dihydro-2-trichloromethyl-2H-benzo[e]-[1,3]-oxazin-4-one]
0.5 µg/mL (≈ 1.7 µM)	O=CN1C(=O)c2ccccc2OC1C(Cl)(Cl)Cl (centres unmarked) [drawing 6; R3=H; R5=HCO, 3-formyl-3,4-dihydro-2-trichloromethyl-2H-benzo[e]-[1,3]-oxazin-4-one]
0.3 µg/mL (≈ 0.966 µM)	O=C(O)c1ccc2c(c1)C(=O)NC(C(Cl)(Cl)Cl)O2 (centres unmarked) [drawing 6; R3=HO . CO; R5=H, 3,4-dihydro-4-oxo-2-trichloromethyl-2H-benzo[e]-[1,3]-oxazine-6-carboxylicacid]
0.5 µg/mL (≈ 1.77 µM)	O=C1NC(C(Cl)(Cl)Cl)Oc2ccc(O)cc21 (centres unmarked) [drawing 6; R3=HO; R5=H, 3,4-dihydro-6-hydroxy-2-trichloromethyl-2H-benzo[e]-[1,3]-oxazin-4-one]
0.3 µg/mL (≈ 0.969 µM)	NC(=O)c1ccc2c(c1)C(=O)NC(C(Cl)(Cl)Cl)O2 (centres unmarked) [drawing 6; R3=NH2 CO; R5=H, 3,4-dihydro-4-oxo-2-trichloromethyl-2H-benzo[e]-[1,3]-oxazine-6-carboxamide]
1 µg/mL (≈ 3.21 µM)	O=C1NC(C(Cl)(Cl)Cl)Oc2ccc([N+](=O)[O-])cc21 (centres unmarked) [drawing 6; R3=NO2; R5=H]
1 µg/mL (≈ 2.37 µM)	O=C(Oc1ccc2c(c1)C(=O)NC(C(Cl)(Cl)Cl)O2)c1ccc(Cl)cc1 (centres unmarked) [drawing 6; R3=p-Cl . C6 H4 CO . O; R5=H, 6-p-chlorobenzoyloxy-3,4-dihydro-2-trichloromethyl-2H-benzo[e]-[1,3]-oxazin-4-one]
0.3 µg/mL (≈ 1.06 µM)	COc1ccc2c(c1)COC(C(Cl)(Cl)Cl)N2 (centres unmarked) [drawing 7; R3=CH3 O, 1,2-dihydro-6-methoxy-2-trichloromethyl-4H-benzo[d]-[1,3]-oxazine]
3 µg/mL (≈ 11.3 µM)	Cc1ccc2c(c1)COC(C(Cl)(Cl)Cl)N2 (centres unmarked) [drawing 7; R3=CH3, 1,2-dihydro-6-methyl-2-trichloromethyl-4H-benzo[d]-[1,3]oxazine]
0.3 µg/mL (≈ 1.08 µM)	N#Cc1ccc2c(c1)COC(C(Cl)(Cl)Cl)N2 (centres unmarked) [drawing 7; R3=CN, 1,2-dihydro-2-trichloromethyl-4H-benzo[d]-[1,3]-oxazine-6-carbonitrile]
1 µg/mL (≈ 3.96 µM)	ClC(Cl)(Cl)C1Nc2ccccc2CO1 (centres unmarked) [drawing 7; R3=H, 1,2-dihydro-2-trichloromethyl-4H-benzo[d]-[1,3]-oxazine]
1 µg/mL (≈ 2.64 µM)	ClC(Cl)(Cl)C1Nc2ccc(I)cc2CO1 (centres unmarked) [drawing 7; R3=I]
0.5 µg/mL (≈ 1.68 µM)	O=[N+]([O-])c1ccc2c(c1)COC(C(Cl)(Cl)Cl)N2 (centres unmarked) [drawing 7; R3=NO2, 1,2-dihydro-6-nitro-2-trichloromethyl-4H-benzo[d]-[1,3]oxazine]
